{"source": "patent US20180303793A1", "about": "“METHODS AND COMPOSITIONS FOR TREATING TRAUMATIC BRAIN INJURY” (SCYTHIAN BIOSCIENCES INC., priority 2015, published 2018)", "origin": "cited, not measured here", "details": "single agent", "data": [{"smiles": "CCCCCCC(C)(C)c1cc(O)c2c(c1)OC(C)(C)[C@H]1CC=C(CO)C[C@H]21", "note": "[dexanabinol, 7-hydroxy-delta6-tetrahydrocannabinol 1,1-dimethylheptyl]", "values": [{"measurement": "intracranial pressure", "setting": "one prior study", "result": "lowered intracranial pressure"}, {"measurement": "gliosis and the subsequent immune cascade", "setting": "other prior studies", "result": "did not inhibit gliosis"}]}]}
